Test results from BindingDB's records for doi:10.7270/Q2DB806H (University of Pittsburgh, 2007).

These compounds were tested against T1, Dual specificity protein phosphatase 6 (Rattus norvegicus, UniProt Q64346) (assay: MKP-3 phosphatase inhibitors, dose response, biochemical, probe assessment (AID 673)).
T1 sequence (Q64346 whole entry): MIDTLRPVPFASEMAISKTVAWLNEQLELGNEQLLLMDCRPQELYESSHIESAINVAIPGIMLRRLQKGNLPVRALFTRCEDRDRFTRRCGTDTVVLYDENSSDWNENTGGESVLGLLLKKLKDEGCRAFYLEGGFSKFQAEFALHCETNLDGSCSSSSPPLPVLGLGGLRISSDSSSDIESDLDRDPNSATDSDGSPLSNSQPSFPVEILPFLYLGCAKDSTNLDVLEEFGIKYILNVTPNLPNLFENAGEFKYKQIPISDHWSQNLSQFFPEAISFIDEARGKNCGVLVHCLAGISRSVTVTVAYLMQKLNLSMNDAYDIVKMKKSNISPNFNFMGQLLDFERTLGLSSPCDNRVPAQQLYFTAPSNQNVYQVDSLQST

Structure (SMILES) | IC50
O=C(Nc1ccc2nc(-c3ccco3)c(-c3ccco3)nc2c1)N1CCCCCC1 | > 50 µM
Cc1ccc2c(c1C)NC(C(=O)O)C1CC=CC21 (stereo not drawn) | > 50 µM
O=C(O)C1Nc2c(O)cccc2C2C=CCC12 (stereo not drawn) | > 50 µM
Cn1ncnc2c(=O)n(C)c(=O)nc1-2 | 0.433 µM
[O-]/[N+](=C\c1ccncc1)c1ccccc1 | > 50 µM
COc1cccc2c(C)c(C(=O)O)[nH]c12 | > 50 µM
O=C1C=Cc2ccccc2C1=O [1,2-dihydronaphthalene-1,2-dione] | > 50 µM
CCn1nc(-c2ccccc2)nc2c(=O)n(C)c(=O)nc1-2 [1-Ethyl-6-methyl-3-phenyl-1H-pyrimido[5,4-e][1,2,4]triazine-5,7-dione] | 0.615 µM
[O-]/[N+](=C\c1ccc(OC(F)F)cc1)c1ccccc1 [1-[4-(difluoromethoxy)phenyl]-N-phenylmethanimine oxide] | > 50 µM
CCn1nc(-c2cccs2)nc2c(=O)n(C)c(=O)nc1-2 [1-ethyl-6-methyl-3-thiophen-2-yl-pyrimido[5,4-e][1,2,4]triazine-5,7-dione] | 0.629 µM
O=C1Cc2ccccc2C(=O)N1CCc1ccccc1 [2-(2-phenylethyl)-4H-isoquinoline-1,3-dione] | 19.8 µM
N#Cc1c(N)sc(=S)c2c1CCN(Cc1ccccc1)C2 [3-Amino-7-benzyl-1-thioxo-5,6,7,8-tetrahydro-1H-thiopyrano[3,4-c]pyridine-4-carbonitrile] | 2.74 µM
Cc1ccccc1Nc1cc2ccccc2c(O)n1 [3-[(2-methylphenyl)amino]-2H-isoquinolin-1-one] | 12.1 µM
COc1ccc(Br)cc1C=c1sc2nc(-c3ccco3)nn2c1=O [5-[(5-bromanyl-2-methoxy-phenyl)methylidene]-2-(furan-2-yl)-[1,3]thiazolo[3,2-b][1,2,4]triazol-6-one] | > 50 µM
CC(=O)Nc1cc(OC(C)=O)c2nonc2c1OC(C)=O [Acetic acid 7-acetoxy-5-acetylamino-benzo[1,2,5]oxadiazol-4-yl ester] | > 50 µM
CCOC(=O)C(C(=O)OCC)c1cc(Br)c2noc3c2c1C(=O)c1ccccc1-3 [MLS000038842] | > 50 µM
Oc1nc(Nc2ccccc2)cc2ccccc12 [MLS000043701] | 12.6 µM
O=C1C=Cc2ccccc2/C1=C/NC12CN3CCN(CN(C3)C1)C2 [MLS000071484] | > 50 µM
Cc1c(N=c2c(=O)c3ccccc3c2=O)c(=O)n(-c2ccccc2)n1C [MLS000105950] | 19.8 µM
CCOc1ccc2noc3c2c1C(=O)c1ccccc1-3 [MLS000106837] | > 50 µM
COc1ccc2noc3c2c1C(=O)c1ccccc1-3 [MLS000106874] | > 50 µM
c1ccc(CSc2nnc(-c3ccco3)c(-c3ccco3)n2)cc1 [MLS-0029114.0001] | > 50 µM
Cc1ccc2c(c1)C1C=CCC1C(C(=O)O)N2 (stereo not drawn) [MLS-0067149.0001] | > 50 µM
O=C(NC1(O)C(=O)c2ccccc2C1=O)c1ccccc1 [N-(2-hydroxy-1,3-dioxo-2-indenyl)benzamide] | 48.7 µM
COc1cccc2c1NC(C(=O)O)C1CC=CC21 (stereo not drawn) [SMR000009698] | > 50 µM
O=C(OC1CCCCC1)c1ccc2c(c1)C1C=CCC1C(C(=O)O)N2 (stereo not drawn) [SMR000019385] | > 50 µM
N#Cc1c(N2CCCC2)nc(N)c2c(N)nc(N3CCCC3)cc12 [SMR000061605] | 3.71 µM
Nc1cccc2cnccc12 [isoquinolin-5-amine] | > 50 µM
